Measurements reported in the supplement of paper PMC11451515.

Test system: NOMO1
Assay: cell viability relative to DMSO control; higher = less cytotoxic
Settings: 48 h
In short: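 Before seeding, each leukemia line was adapted for at least four passages in each medium. NOMO1 or SEM cells (500 cells/well) and P12-Ichikawa cells (1000 cells/well) went into 1536-well plates at 5 μl, then received library compounds in DMSO by pin dosing across 11 threefold concentrations, 47 μM to 0.79 nM. Readout was CellTiter-Glo One luminescence after 48 h at 37°C, and viability is given as a per-plate percentage of DMSO wells, with cell-free wells as background.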

[1] = HPLM + 10% dialyzed FBS, 0.000781 µM
[2] = HPLM + 10% dialyzed FBS, 0.00234 µM
[3] = HPLM + 10% dialyzed FBS, 0.00702 µM
[4] = HPLM + 10% dialyzed FBS, 0.0211 µM
[5] = HPLM + 10% dialyzed FBS, 0.0632 µM
[6] = HPLM + 10% dialyzed FBS, 0.19 µM
[7] = HPLM + 10% dialyzed FBS, 0.569 µM
[8] = HPLM + 10% dialyzed FBS, 1.71 µM
[9] = HPLM + 10% dialyzed FBS, 5.12 µM
[10] = HPLM + 10% dialyzed FBS, 15.4 µM
[11] = HPLM + 10% dialyzed FBS, 46.1 µM
[12] = RPMI 5 mM glucose + 10% FBS, 0.000781 µM
[13] = RPMI 5 mM glucose + 10% FBS, 0.00234 µM
[14] = RPMI 5 mM glucose + 10% FBS, 0.00702 µM
[15] = RPMI 5 mM glucose + 10% FBS, 0.0211 µM
[16] = RPMI 5 mM glucose + 10% FBS, 0.0632 µM
[17] = RPMI 5 mM glucose + 10% FBS, 0.19 µM
[18] = RPMI 5 mM glucose + 10% FBS, 0.569 µM
[19] = RPMI 5 mM glucose + 10% FBS, 1.71 µM
[20] = RPMI 5 mM glucose + 10% FBS, 5.12 µM
[21] = RPMI 5 mM glucose + 10% FBS, 15.4 µM
[22] = RPMI 5 mM glucose + 10% FBS, 46.1 µM
[23] = RPMI 5 mM glucose + 10% dialyzed FBS, 0.000781 µM
[24] = RPMI 5 mM glucose + 10% dialyzed FBS, 0.00234 µM
[25] = RPMI 5 mM glucose + 10% dialyzed FBS, 0.00702 µM
[26] = RPMI 5 mM glucose + 10% dialyzed FBS, 0.0211 µM
[27] = RPMI 5 mM glucose + 10% dialyzed FBS, 0.0632 µM
[28] = RPMI 5 mM glucose + 10% dialyzed FBS, 0.19 µM
[29] = RPMI 5 mM glucose + 10% dialyzed FBS, 0.569 µM
[30] = RPMI 5 mM glucose + 10% dialyzed FBS, 1.71 µM
[31] = RPMI 5 mM glucose + 10% dialyzed FBS, 5.12 µM
[32] = RPMI 5 mM glucose + 10% dialyzed FBS, 15.4 µM
[33] = RPMI 5 mM glucose + 10% dialyzed FBS, 46.1 µM

Compound | cell viability [1] [%] | cell viability [2] [%] | cell viability [3] [%] | cell viability [4] [%] | cell viability [5] [%] | cell viability [6] [%] | cell viability [7] [%] | cell viability [8] [%] | cell viability [9] [%] | cell viability [10] [%] | cell viability [11] [%] | cell viability [12] [%] | cell viability [13] [%] | cell viability [14] [%] | cell viability [15] [%] | cell viability [16] [%] | cell viability [17] [%] | cell viability [18] [%] | cell viability [19] [%] | cell viability [20] [%] | cell viability [21] [%] | cell viability [22] [%] | cell viability [23] [%] | cell viability [24] [%] | cell viability [25] [%] | cell viability [26] [%] | cell viability [27] [%] | cell viability [28] [%] | cell viability [29] [%] | cell viability [30] [%] | cell viability [31] [%] | cell viability [32] [%] | cell viability [33] [%]
CCN1\C=C(\C(O)=O)C(=O)C2=CC=C(C)N=C12 | 75.3 | 87.7 | 99.4 | 103 | 102 | 116 | 95.8 | 100 | 81.7 | 88.1 | 47.4 | 81.9 | 103 | 98.2 | 89.1 | 103 | 96.6 | 100 | 91 | 99.9 | 90.6 | 56 | 66.6 | 76.6 | 71.2 | 80.1 | 83.2 | 83.5 | 80.5 | 89.5 | 82.5 | 81.6 | 61.7
Nc1ncnc2c1c(-c1cnc3[nH]ccc3c1)nn2C1CCCC1 | – | – | – | – | – | – | – | – | – | – | – | 108 | 120 | 141 | 135 | 119 | 114 | 112 | 93.5 | 66.7 | 54.4 | 45.4 | 106 | 119 | 103 | 109 | 131 | 100 | 104 | 81.7 | 61.8 | 52.8 | 45.8
CC(C)C(=O)Oc1ccc(CO)cc1[C@H](CCN(C(C)C)C(C)C)c1ccccc1 | 99.1 | 104 | 85.7 | 87 | 85.6 | 91.8 | 93.3 | 88.9 | 78.9 | 81.1 | 71.7 | 85.2 | 78.8 | 88.8 | 93.3 | 82.5 | 76 | 80 | 83.4 | 85.2 | 79.1 | 78.4 | 78.3 | 79.6 | 86.4 | 78.9 | 73.8 | 79.2 | 73.5 | 80.8 | 77.4 | 82.5 | 79.1
O=C(Nc1ccc(F)c(C(F)(F)F)c1)Nc1nnc(-c2ccncc2)s1 | 112 | 120 | 127 | 130 | 134 | 136 | 118 | 112 | 118 | 108 | 111 | 123 | 113 | 124 | 106 | 114 | 105 | 121 | 102 | 108 | 107 | 101 | 119 | 124 | 128 | 124 | 125 | 131 | 113 | 128 | 116 | 114 | 100
CC(C)=CC[C@@H](O)C/1=C/C(=O)C2=C(O)C=CC(=C2C1=O)O | 91.5 | 108 | 95.5 | 100 | 105 | 113 | 123 | 85.1 | 33.5 | 25.8 | 17 | 93.7 | 105 | 102 | 102 | 95.7 | 96 | 108 | 52.6 | 17.3 | 17.9 | 12.2 | 88.2 | 92.6 | 93 | 113 | 98.1 | 109 | 107 | 70.2 | 24.5 | 15.3 | 21.2
Nc1nc(N)c2nc(CNc3ccc(C(=O)NC(CCC(=O)O)C(=O)O)cc3)cnc2n1 (stereo unspecified) | 105 | 123 | 118 | 112 | 97.5 | 70.4 | 49.8 | 57.1 | 57.4 | 61.4 | 65.2 | 97.1 | 95.9 | 103 | 102 | 92.9 | 118 | 103 | 106 | 112 | 133 | 117 | 119 | 117 | 118 | 131 | 72.7 | 42.9 | 38.3 | 45 | 46 | 38.9 | 40.1
COCCCN1CCC(NC(=O)c2cc(Cl)c(N)c3c2OCC3)CC1 | 116 | 124 | 127 | 119 | 147 | 137 | 133 | 150 | 142 | 137 | 110 | – | – | – | – | – | – | – | – | – | – | – | – | – | – | – | – | – | – | – | – | – | –
C[N]1C=C(C2=C1C=CC=C2)\C3=C(\C(=O)NC3=O)C4=C5CC(CN)CC[N]5C6=C4C=CC=C6 (stereo unspecified) | 94.9 | 118 | 115 | 101 | 109 | 120 | 115 | 110 | 113 | 90 | 37.4 | 88.5 | 104 | 94.1 | 97.8 | 102 | 100 | 93.5 | 95.8 | 96.8 | 81.3 | 44.1 | 92.8 | 100 | 106 | 114 | 105 | 111 | 105 | 100 | 104 | 88 | 63.4
COC1=CC=C(C=C1)C/2=C/OC3=C(C(=CC(=C3)O)O)C2=O | 111 | 124 | 133 | 114 | 130 | 123 | 133 | 122 | 116 | 114 | 60.5 | – | – | – | – | – | – | – | – | – | – | – | 111 | 116 | 120 | 130 | 156 | 144 | 144 | 140 | 140 | 143 | 106
C\C1=C(\C=C(C#N)/C(=O)N1)C2=C[N]3C=CN=C3C=C2 | 69.8 | 82.7 | 88.2 | 79.1 | 80.9 | 79.9 | 83.7 | 89.3 | 97.9 | 94.4 | 93 | 85.2 | 82.2 | 80.6 | 80.9 | 84.5 | 80.1 | 94.5 | 72.7 | 81.1 | 84.8 | 78.9 | 78.8 | 81.1 | 88.1 | 83.4 | 84.2 | 84.5 | 90.2 | 92 | 91.3 | 85.3 | 74.6
CC[C@H](C)[N]1C=C(C)C2=C1C=C(C=C2C(=O)NC\C3=C(C)\C=C(\C)NC3=O)C4=CC=C(N=C4)N5CCNCC5 | 112 | 108 | 125 | 131 | 130 | 129 | 124 | 104 | 127 | 122 | 82.3 | 105 | 108 | 121 | 123 | 122 | 115 | 126 | 115 | 128 | 113 | 102 | 116 | 125 | 124 | 127 | 128 | 123 | 137 | 138 | 148 | 118 | 96.4
FC(F)c1nc2ccccc2n1-c1nc(N2CCOCC2)nc(N2CCOCC2)n1 | 104 | 93.8 | 92 | 60.1 | 65.3 | 42.6 | 43.9 | 36.3 | 41.5 | 27.7 | 30.6 | 85.4 | 92.2 | 87.9 | 94.5 | 78 | 67.8 | 52.6 | 62.8 | 45.7 | 60.2 | 31.2 | 86.5 | 102 | 97.1 | 97.5 | 76.5 | 71 | 54.7 | 52.9 | 50.2 | 43.9 | 34.4
COc1cc2c(cc1OC)CC(=O)N(CCCN(C)C[C@H]1Cc3cc(OC)c(OC)cc31)CC2.Cl | 126 | 115 | 107 | 122 | 97.1 | 111 | 122 | 112 | 114 | 115 | 109 | 104 | 105 | 99.2 | 106 | 100 | 102 | 102 | 99.6 | 105 | 97.5 | 95.3 | 111 | 114 | 130 | 115 | 113 | 106 | 92.6 | 110 | 110 | 93 | 100
N[C@H](CSC(c1ccccc1)(c1ccccc1)c1ccccc1)C(=O)O | 108 | 114 | 133 | 135 | 116 | 108 | 115 | 125 | 120 | 129 | 99.6 | 121 | 113 | 126 | 131 | 123 | 118 | 138 | 139 | 114 | 115 | 106 | 106 | 116 | 117 | 129 | 131 | 127 | 134 | 126 | 108 | 109 | 116
CC(N)C12CC3CC(CC(C3)C1)C2 (stereo unspecified) | 99.4 | 120 | 116 | 113 | 117 | 104 | 126 | 109 | 104 | 85.1 | 80.2 | 104 | 118 | 122 | 111 | 108 | 116 | 126 | 112 | 112 | 53.4 | 49.2 | – | – | – | – | – | – | – | – | – | – | –
CNC1CCC(N(Cc2cccc(-c3ccncc3)c2)C(=O)c2sc3c(F)ccc(F)c3c2Cl)CC1 (stereo unspecified) | 92.9 | 111 | 121 | 123 | 127 | 106 | 111 | 113 | 100 | 97.8 | 36.5 | 95.3 | 108 | 100 | 106 | 118 | 105 | 117 | 105 | 99 | 104 | 81 | 87 | 99.2 | 104 | 115 | 112 | 99.7 | 110 | 100 | 100 | 108 | 57.4
C[S+](=O)([O-])N1CCc2c(-c3cnc(N)nc3)nc(N3CCOCC3)nc21 | 105 | 102 | 112 | 118 | 104 | 107 | 86.6 | 76.4 | 77.9 | 76.2 | 74.4 | 107 | 104 | 99.3 | 110 | 102 | 99.5 | 101 | 88.9 | 95 | 81.9 | 74 | 99 | 103 | 99.6 | 97.7 | 93.6 | 96.9 | 77.3 | 69.4 | 73.7 | 69.7 | 56.8
